In patent US20240065303A1, “BITTER MASKING AGENT” (SOLUGEN, INC., priority 2020, published 2024):

Assays:
Format in all cases: in vivo
[1] = blind taste panel: which coffee tasted less bitter; details: Coffee 2 = 0.5 grams of sodium gluconate added to a 200 g coffee; blind study, panel of 8 individuals; FIG. 1
Experimental: The ability of a BMA to reduce the bitterness of a coffee product was investigated. Specifically, varying amounts of a BMA according to aspects described herein was added to coffee samples. In a blind study, a panel of 8 individuals were asked to determine which coffee tasted less bitter. […] Coffee 2 had 0.5 grams of sodium gluconate added to a 200 g coffee.
In a blind study, a panel of 8 individuals were asked to determine which coffee tasted less bitter. […] Coffee 2 had 0.5 grams of sodium gluconate added to a 200 g coffee.

[2] = blind tasting of chocolate chip cookies baked with sugar substitutes, with and without sodium gluconate; details: ½ tsp of sodium gluconate for every cup of erythritol; 5 people, blind sampled
Source text: The level of sodium gluconate on bitterness reduction in baked goods was investigated. Using a commercially available recipe of chocolate chip cookies, a batch of cookies were baked and blind sampled. The batches were baked using the recipe (i) 2 sticks unsalted butter, at room temperature; (ii) 1 cup erythritol or 1 cup monk fruit sugar substitute or ½ cup stevia sugar substitute; (iii) for samples with sodium gluconate, ½ tsp of sodium gluconate was used for every cup of erythritol; (iv) 1¼ egg; (v) 1⅓ cup almond flour; (vi) 2 tsp vanilla extract; (vii) 1¼ tsp sea salt; (viii) ½ tsp baking powder; (ix) ¼ tsp baking soda; and (x) 1 bag Lily's Sweets Semi-Sweet Chocolate Chips or Milk Chocolate Baking Chips. […] Five (5) people were brought in to compare batches with and without sodium gluconate.

[3] = trained-panel taste test of caffeine solutions with and without sodium gluconate (dose response)
Experimental: The effect of sodium gluconate on bitterness as a dose response was investigated, In a blind study, six (6) trained panelists conducted a taste test with caffeine samples. […] Caffeine solutions with and without sodium gluconate were prepared on a w/v basis with deionized water. Products were dispensed into lidded soufflé cups with 3-digit codes and evaluated at 21° C. Products were evaluated in duplicate by 6 trained panelists for bitter taste amelioration following the study by Leksrisompong et al. (2012).

O=C([O-])[C@H](O)[C@@H](O)[C@H](O)[C@H](O)CO.[Na+] [sodium gluconate]
coffee sample chosen by the panel as less bitter [1]: less bitter, smoother taste
participants' preference between cookie batches with and without sodium gluconate [2]: All 5 participants preferred
bitterness reduction of caffeine samples ([3]; caffeine solutions w/v in deionized water, 21° C., 6 trained panelists in duplicate, 0 to 15 point Spectrum intensity scale, FIG. 2): significant bitterness reduction
nature of bitterness reduction as a function of masking agent dose ([3]; percent bitterness vs masking agent dose, FIG. 3): linear
